We go through three compounds from PMC7519686, “Engineering and application of a biosensor with focused ligand specificity” (Nature Communications, 2020).

Holding throughout (assay type): binding
For assay [1], the target named is T1, LysG-A219L (Corynebacterium glutamicum, UniProt P94632, A219L). Briefly: ITC with purified protein (fixed stoichiometry of two ligands per tetramer).
Assay [2] concerns the target T2, LysG (Corynebacterium glutamicum, UniProt P94632).
T2 sequence (P94632 1-290): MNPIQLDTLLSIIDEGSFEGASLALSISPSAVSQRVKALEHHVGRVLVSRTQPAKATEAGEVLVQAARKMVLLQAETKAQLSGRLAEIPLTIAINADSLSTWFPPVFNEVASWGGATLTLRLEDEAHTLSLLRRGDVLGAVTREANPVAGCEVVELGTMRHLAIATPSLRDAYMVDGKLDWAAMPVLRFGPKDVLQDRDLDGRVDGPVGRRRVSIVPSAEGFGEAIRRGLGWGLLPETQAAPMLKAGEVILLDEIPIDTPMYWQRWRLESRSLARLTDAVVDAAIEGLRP
Briefly: X-ray co-crystal structure ([…] Å) and ITC. Further details: full-length LysG.

Assay [3] deals with T2, LysG. Briefly: ITC with purified protein (fixed stoichiometry of two ligands per tetramer).
Assay [4] deals with T2, LysG. Briefly: ITC with purified protein.
Assay [5] has as its target T1, LysG-A219L. Briefly: ITC with purified protein.

As usually defined, the Kd is the constant that tells how readily two partners part at equilibrium. Consider `N=C(N)NCCC[C@H](N)C(=O)O` [L-arginine], for which the Kd amounted to 9620 µM on LysG-A219L [1] and 1150 µM on LysG [2].

As for `NCCCC[C@H](N)C(=O)O` [L-lysine], the Kd on LysG [3] was found to be 3290 µM.

Regarding `N[C@@H](Cc1c[nH]cn1)C(=O)O` [L-histidine], the Kd came to 16 µM at LysG [4] and 20.7 µM on LysG-A219L [5].
